Data set [1] addresses Voltage-gated inwardly rectifying potassium channel KCNH2 (Homo sapiens, UniProt Q12809). Description: Inhibition of human ERG by patch clamp method.
The target in another data set is Cytochrome P450 3A4 (Homo sapiens, UniProt P08684). Put plainly: Inhibition of CYP3A4 (unknown origin). The class given is ADME.
A short description of data set [2]: Permeability from apical side to basolateral side in human Caco2 cells. The class given is ADME, cell-based. Particulars: Caco-2, read-out: permeability. On the technique in general: Caco-2 cells form a polarised layer with tight junctions and transporters.
A short description of data set [3]: Protein binding in mouse plasma at 10 mg/kg, po. It is filed as ADME, organism-based. As to conditions: read-out: PPB (converted).
Data set [4] is described as follows: Cmax in mouse at 10 mg/kg, po after 24 hrs. The class given is ADME, organism-based. Set-up: dose 10 mg/kg, route oral. Particulars: in vivo.
A short description of data set [5]: Cmin in mouse at 10 mg/kg, po after 24 hrs. Particulars: in vivo, read-out: Cmin. It is filed as ADME, organism-based.
A short description of data set [6]: Half life in human liver microsomes. It is filed as ADME, microsome. On the technique in general: Liver microsomes are vesicles of endoplasmic reticulum, rich in cytochrome P450 enzymes.
The species entered for data set [7] is Homo sapiens. Description: Inhibition of calcium channel (unknown origin) at 10 uM by patch clamp assay. A general note: Patch clamp records ionic current or voltage across a cell membrane.
For data set [8], the species on record is Homo sapiens. Description: Inhibition of sodium channel (unknown origin) at 10 uM by patch clamp assay.
A short description of data set [9]: Protein binding in human plasma. Particulars: read-out: PPB (converted). The class given is ADME, cell-free.
A short description of data set [10]: Aqueous solubility of compound at pH 6.5. It is filed as physicochemical.
Data set [11] can be described thus: Tmax in BALB/c mouse at 10 mg/kg, po. As to conditions: in vivo. The class given is ADME, organism-based.
A short description of data set [12]: AUC in BALB/c mouse at 10 mg/kg, po. The class given is ADME, organism-based. Particulars: in vivo.
Data set [13] in a line: AUC in BALB/c mouse at 2 mg/kg, iv. As to conditions: in vivo. It is filed as ADME, organism-based.
Data set [14] in a line: Half life in BALB/c mouse at 2 mg/kg, iv. It is filed as ADME, organism-based. As to conditions: in vivo.
A short description of data set [15]: Clearance in BALB/c mouse at 2 mg/kg, iv. It is filed as ADME, organism-based. As to conditions: in vivo.
A short description of data set [16]: Cmax in Sprague-Dawley rat at 10 mg/kg, po. It is filed as ADME, organism-based. Set-up: dose 10 mg/kg, route oral. As to conditions: in vivo.
The nature of data set [17]: Tmax in Sprague-Dawley rat at 10 mg/kg, po. It is filed as ADME, organism-based. Particulars: in vivo.
A short description of data set [18]: Half life in Sprague-Dawley rat at 10 mg/kg, po. It is filed as ADME, organism-based. As to conditions: in vivo.
Data set [19] can be described thus: AUC in Sprague-Dawley rat at 2 mg/kg, iv. It is filed as ADME, organism-based. As to conditions: in vivo.
Data set [20] in a line: Half life in Sprague-Dawley rat at 2 mg/kg, iv. It is filed as ADME, organism-based. Particulars: in vivo.
Data set [21] has as its system Rattus norvegicus. Description: Cardiotoxicity in rat assessed as decrease in mean arterial blood pressure at 200 mg/kg. As to conditions: in vivo. The class given is toxicity, organism-based.
Data set [22] has as its system Rattus norvegicus. Description: Toxicity in rat assessed as mortality at 200 mg/kg. It is filed as organism-based. As to conditions: in vivo.
In data set [23] the target is Rho-associated protein kinase 2 (Homo sapiens, UniProt O75116). Description: Inhibition of Rho-associated protein kinase 2 (unknown origin).
Data set [24] has as its target Serine/threonine-protein kinase STK11 (Homo sapiens) (UniProt Q15831). Description: Inhibition of wild-type human full length LKB1 (M1 to Q433 residues) expressed in bacterial expression system assessed as residual activity at 50 nM by Kinomescan method relative to control.
Data set [25] addresses Serine/threonine-protein kinase DCLK2 (Homo sapiens) (UniProt Q8N568). Description: Inhibition of wild-type human partial length DCAMKL2 (K273 to V664 residues) expressed in bacterial expression system assessed as residual activity at 50 nM by Kinomescan method relative to control.
Data set [26] deals with Mitogen-activated protein kinase 9 (Homo sapiens) (UniProt P45984). Description: Inhibition of wild-type human full length JNK2 (M1 to Q382 residues) expressed in mammalian expression system assessed as residual activity at 50 nM by Kinomescan method relative to control.
For data set [27], the target named is Mitogen-activated protein kinase kinase kinase 1 (Homo sapiens) (UniProt Q13233). Put plainly: Inhibition of wild-type human partial length MAP3K1 (L1202 to W1512 residues) expressed in mammalian expression system assessed as residual activity at 50 nM by Kinomescan method relative to control.
The target of data set [28] is Protein kinase C iota type (Homo sapiens) (UniProt P41743). Description: Inhibition of recombinant human PKCiota (H215 to V587 residues) expressed in mammalian expression system assessed as residual activity at 50 nM by Kinomescan method relative to control.
For data set [29], the target named is Serine/threonine-protein kinase 16 (Homo sapiens) (UniProt O75716). Description: Inhibition of wild-type human partial length STK16 (G11 to I305 residues) expressed in bacterial expression system assessed as residual activity at 50 nM by Kinomescan method relative to control.
Data set [30] concerns the target Casein kinase I isoform alpha (Homo sapiens) (UniProt P48729). Put plainly: Inhibition of wild-type human partial length CK1A (M1 to L450 residues) expressed in mammalian expression system assessed as residual activity at 50 nM by Kinomescan method relative to control.
In data set [31] the target is Serine/threonine-protein kinase NIM1 (Homo sapiens) (UniProt Q8IY84). Description: Inhibition of wild-type human partial length NIM1 (Q44 to N355 residues) expressed in mammalian expression system assessed as residual activity at 50 nM by Kinomescan method relative to control.
Data set [32] addresses Serine/threonine-protein kinase PAK 6 (Homo sapiens) (UniProt Q9NQU5). Description: Inhibition of wild-type human partial length PAK6 (N298 to C681 residues) expressed in bacterial expression system assessed as residual activity at 50 nM by Kinomescan method relative to control.
Data set [33] deals with Serine/threonine-protein kinase PLK4 (Homo sapiens) (UniProt O00444). Put plainly: Inhibition of wild-type human partial length PLK4 (M1 to S273 residues) expressed in mammalian expression system assessed as residual activity at 50 nM by Kinomescan method relative to control.
Data set [34] in a line: Inhibition of ACTR2 (unknown origin) assessed as residual activity at 50 nM by Kinomescan method relative to control. As to conditions: Homo sapiens.
Data set [35] concerns Ribosomal protein S6 kinase alpha-2. Put plainly: Inhibition of wild-type human partial length N-terminal RSK3 kinase domain 1 (M1 to Q385 residues) expressed in bacterial expression system assessed as residual activity at 50 nM by Kinomescan method relative to control.
For data set [36], the system named is Mus musculus. Description: Antiarthritic activity in collagen-induced arthritis mouse model assessed as reduction in inflammation at 10 mg/kg, po qd measured up to 41 days. It is filed as functional, organism-based.
Data set [37] in a line: Drug concentration in mouse at 10 mg/kg, po qd after 24 hrs. It is filed as ADME, organism-based. Particulars: in vivo, read-out: Drug uptake.
Data set [38] in a line: Drug concentration in mouse at 2 mg/kg, po qd after 24 hrs. The class given is ADME, organism-based. Particulars: in vivo, read-out: Drug uptake.
Data set [39] concerns Mus musculus. Put plainly: Antiarthritic activity in collagen-induced mouse model assessed as […] at 10 mg/kg, po qd up to 41 days. The class given is functional, organism-based.
Data set [40] deals with Mus musculus. Put plainly: Toxicity in collagen-induced arthritis mouse model at 50 mg/kg, po qd. The class given is organism-based. Particulars: in vivo.
In data set [41] the test system is Phosphatidylinositol 4,5-bisphosphate 3-kinase catalytic subunit alpha isoform (Homo sapiens), P42336 [H1047L]. Description: Inhibition of human partial length PIK3CA H1047L mutant (R108 to N1068 residues) expressed in mammalian expression system assessed as residual activity at 50 nM by Kinomescan method relative to control.
Data set [42] can be described thus: Protein binding in human serum. The class given is ADME, cell-free. As to conditions: read-out: PB (converted).
The species named for data set [43] is Mus musculus. Description: animal or person. Particulars: Balb/c, 24 h.

Converted amounts (≈) assume the structure as drawn. The source made the active and inactive calls. The calls are words filed in the database; no cut-off is given here.

Protein kinase C iota type (Homo sapiens), sequence (P41743 whole entry, the tested form may be a part): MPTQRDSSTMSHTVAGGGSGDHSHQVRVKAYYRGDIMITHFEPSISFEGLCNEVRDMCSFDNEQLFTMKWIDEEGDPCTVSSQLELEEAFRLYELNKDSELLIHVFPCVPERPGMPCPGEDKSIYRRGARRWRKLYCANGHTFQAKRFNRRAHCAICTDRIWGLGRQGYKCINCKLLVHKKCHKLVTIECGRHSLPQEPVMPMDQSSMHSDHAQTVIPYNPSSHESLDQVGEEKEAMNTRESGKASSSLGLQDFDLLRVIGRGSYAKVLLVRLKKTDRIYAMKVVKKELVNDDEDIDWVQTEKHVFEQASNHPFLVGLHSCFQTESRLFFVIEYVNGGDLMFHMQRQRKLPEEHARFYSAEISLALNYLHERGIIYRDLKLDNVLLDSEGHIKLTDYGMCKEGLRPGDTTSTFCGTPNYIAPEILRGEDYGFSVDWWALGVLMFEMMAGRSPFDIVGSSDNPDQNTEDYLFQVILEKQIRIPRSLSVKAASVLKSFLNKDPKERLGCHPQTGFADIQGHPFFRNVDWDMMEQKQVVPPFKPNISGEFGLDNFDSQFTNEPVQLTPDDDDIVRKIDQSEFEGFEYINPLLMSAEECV
Mitogen-activated protein kinase kinase kinase 1 (Homo sapiens), sequence (Q13233 whole entry, the tested form may be a part): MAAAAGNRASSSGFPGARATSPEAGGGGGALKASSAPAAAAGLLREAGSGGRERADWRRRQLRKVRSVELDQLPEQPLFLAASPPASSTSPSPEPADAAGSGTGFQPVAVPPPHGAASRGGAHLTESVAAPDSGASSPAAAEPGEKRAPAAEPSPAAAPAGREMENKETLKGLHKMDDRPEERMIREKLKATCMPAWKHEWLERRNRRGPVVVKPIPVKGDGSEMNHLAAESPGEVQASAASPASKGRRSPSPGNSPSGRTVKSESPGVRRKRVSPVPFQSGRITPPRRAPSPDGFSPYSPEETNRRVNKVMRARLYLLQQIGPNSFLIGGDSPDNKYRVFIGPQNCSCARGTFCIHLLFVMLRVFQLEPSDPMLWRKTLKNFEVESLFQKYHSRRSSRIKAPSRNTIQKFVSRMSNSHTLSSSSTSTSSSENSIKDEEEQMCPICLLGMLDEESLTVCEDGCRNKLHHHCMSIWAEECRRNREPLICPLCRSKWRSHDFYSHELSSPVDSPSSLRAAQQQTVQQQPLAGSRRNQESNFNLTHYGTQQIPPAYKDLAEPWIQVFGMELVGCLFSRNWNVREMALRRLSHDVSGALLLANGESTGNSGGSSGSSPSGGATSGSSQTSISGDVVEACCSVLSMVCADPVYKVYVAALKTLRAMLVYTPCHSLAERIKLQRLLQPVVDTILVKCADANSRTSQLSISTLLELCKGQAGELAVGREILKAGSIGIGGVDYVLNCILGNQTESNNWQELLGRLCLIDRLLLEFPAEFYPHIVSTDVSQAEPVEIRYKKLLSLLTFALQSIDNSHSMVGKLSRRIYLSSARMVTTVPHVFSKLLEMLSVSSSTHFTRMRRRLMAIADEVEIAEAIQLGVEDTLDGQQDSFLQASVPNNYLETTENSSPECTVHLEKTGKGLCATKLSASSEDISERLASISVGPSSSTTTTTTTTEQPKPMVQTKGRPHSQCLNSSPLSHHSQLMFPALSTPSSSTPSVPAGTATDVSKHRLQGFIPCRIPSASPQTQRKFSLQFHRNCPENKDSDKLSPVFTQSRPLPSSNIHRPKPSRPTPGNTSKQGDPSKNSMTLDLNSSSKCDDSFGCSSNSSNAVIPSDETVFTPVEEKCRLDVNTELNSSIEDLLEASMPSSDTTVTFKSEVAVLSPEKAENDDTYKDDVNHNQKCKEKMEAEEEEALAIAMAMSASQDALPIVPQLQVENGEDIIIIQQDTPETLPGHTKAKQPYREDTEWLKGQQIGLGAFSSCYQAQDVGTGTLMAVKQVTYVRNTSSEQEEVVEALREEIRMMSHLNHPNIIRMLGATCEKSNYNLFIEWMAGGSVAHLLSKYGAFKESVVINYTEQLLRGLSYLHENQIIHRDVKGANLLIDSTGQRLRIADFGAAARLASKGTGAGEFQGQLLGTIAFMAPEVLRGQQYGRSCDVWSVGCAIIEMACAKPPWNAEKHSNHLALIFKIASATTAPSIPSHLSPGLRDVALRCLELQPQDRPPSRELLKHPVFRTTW
Serine/threonine-protein kinase PAK 6 (Homo sapiens), sequence (Q9NQU5 whole entry, looked up, the tested form may be a part): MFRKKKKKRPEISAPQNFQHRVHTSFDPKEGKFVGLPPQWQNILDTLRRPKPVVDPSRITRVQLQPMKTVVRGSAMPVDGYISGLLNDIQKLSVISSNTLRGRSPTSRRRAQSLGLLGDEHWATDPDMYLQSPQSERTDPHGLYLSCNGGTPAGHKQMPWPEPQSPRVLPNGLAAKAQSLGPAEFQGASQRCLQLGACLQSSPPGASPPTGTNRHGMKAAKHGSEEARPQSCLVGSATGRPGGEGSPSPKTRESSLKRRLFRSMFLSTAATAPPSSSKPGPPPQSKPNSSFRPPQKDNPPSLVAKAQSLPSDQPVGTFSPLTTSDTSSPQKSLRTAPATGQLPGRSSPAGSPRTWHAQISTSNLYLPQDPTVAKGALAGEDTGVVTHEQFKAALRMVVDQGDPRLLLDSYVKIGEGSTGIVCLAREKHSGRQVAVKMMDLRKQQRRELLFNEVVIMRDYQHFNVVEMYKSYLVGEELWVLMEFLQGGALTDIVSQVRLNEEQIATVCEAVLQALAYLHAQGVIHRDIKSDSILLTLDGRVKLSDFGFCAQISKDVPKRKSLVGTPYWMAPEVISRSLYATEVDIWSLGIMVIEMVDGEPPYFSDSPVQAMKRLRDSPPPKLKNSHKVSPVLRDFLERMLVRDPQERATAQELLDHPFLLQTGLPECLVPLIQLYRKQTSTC
Casein kinase I isoform alpha (Homo sapiens), sequence (P48729 2-337 limits assumed): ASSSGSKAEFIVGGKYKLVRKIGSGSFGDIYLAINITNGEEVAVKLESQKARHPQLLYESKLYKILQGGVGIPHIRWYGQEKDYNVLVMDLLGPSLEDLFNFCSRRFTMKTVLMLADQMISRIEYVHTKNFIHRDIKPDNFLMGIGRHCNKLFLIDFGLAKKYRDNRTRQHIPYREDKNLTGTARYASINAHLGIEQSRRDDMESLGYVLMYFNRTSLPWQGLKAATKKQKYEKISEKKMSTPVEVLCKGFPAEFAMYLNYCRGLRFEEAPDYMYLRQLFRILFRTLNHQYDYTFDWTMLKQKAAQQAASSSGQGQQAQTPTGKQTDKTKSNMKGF
Serine/threonine-protein kinase DCLK2 (Homo sapiens), sequence (Q8N568 whole entry, the tested form may be a part): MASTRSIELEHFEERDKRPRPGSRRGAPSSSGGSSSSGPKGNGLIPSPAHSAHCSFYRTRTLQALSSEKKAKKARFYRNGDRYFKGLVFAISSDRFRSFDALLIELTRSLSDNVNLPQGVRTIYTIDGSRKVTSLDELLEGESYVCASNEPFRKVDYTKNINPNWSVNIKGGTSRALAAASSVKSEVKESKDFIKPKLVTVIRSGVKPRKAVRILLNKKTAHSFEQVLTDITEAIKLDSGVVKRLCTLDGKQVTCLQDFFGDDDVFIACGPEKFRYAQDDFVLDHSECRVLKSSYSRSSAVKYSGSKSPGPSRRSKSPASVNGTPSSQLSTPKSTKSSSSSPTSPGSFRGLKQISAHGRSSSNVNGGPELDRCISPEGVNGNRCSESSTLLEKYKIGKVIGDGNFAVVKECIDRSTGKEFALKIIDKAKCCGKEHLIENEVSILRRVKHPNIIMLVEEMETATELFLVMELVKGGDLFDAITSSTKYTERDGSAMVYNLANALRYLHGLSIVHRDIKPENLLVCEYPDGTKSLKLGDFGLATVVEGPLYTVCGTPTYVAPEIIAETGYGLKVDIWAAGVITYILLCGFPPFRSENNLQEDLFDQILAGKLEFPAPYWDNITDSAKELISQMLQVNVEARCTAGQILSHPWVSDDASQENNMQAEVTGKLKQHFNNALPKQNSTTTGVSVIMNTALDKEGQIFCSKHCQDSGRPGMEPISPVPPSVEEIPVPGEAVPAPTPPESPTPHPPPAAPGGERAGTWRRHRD
Serine/threonine-protein kinase 16 (Homo sapiens), sequence (O75716 whole entry, the tested form may be a part, canonical isoform): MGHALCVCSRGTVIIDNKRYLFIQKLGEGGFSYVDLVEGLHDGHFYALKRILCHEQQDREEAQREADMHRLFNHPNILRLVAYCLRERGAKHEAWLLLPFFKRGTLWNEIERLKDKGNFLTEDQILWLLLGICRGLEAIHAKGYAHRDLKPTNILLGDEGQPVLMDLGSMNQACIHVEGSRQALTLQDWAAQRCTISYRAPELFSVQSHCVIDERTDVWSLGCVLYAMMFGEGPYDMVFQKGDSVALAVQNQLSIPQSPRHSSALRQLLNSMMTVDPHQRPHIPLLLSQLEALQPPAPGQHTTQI
Cytochrome P450 3A4, sequence (P08684 whole entry): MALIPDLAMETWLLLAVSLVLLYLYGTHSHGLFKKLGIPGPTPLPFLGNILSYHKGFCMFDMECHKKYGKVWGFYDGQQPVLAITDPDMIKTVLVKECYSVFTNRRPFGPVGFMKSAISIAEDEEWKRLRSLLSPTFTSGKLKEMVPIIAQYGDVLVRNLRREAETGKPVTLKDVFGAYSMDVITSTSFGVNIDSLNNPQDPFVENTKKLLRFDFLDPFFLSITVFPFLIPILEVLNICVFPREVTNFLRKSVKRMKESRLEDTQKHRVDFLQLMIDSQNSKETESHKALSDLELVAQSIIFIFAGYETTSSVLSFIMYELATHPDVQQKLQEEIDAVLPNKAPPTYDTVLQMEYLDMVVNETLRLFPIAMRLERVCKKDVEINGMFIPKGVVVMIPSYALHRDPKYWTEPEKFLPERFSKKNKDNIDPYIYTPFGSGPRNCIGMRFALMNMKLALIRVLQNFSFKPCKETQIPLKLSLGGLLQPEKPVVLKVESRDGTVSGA

By IC50 is commonly meant the concentration that inhibits the measured activity by half. A lower IC50 goes with higher potency. One may read the Cmax as the peak of the concentration-time curve. The half-life is how long it takes for the measured level to halve. As a reminder, the inhibition is the change of the read-out against control, counted positive when it falls. As a reminder, the solubility is the concentration that dissolves in the medium under given conditions. Higher therefore signals a readily soluble substance. By Tmax is commonly meant the time at which the peak concentration occurs. The AUC is the area under the concentration-time curve, a measure of exposure. Lower therefore signals low exposure. As a reminder, the clearance is a measure of how efficiently the substance is removed, as volume per time. Lower therefore signals inefficient removal. On to `COc1ccc(-c2cc3c(N[C@@H]4CC[C@](C)(N)C4(C)C)c(C(N)=O)cnn3c2)cn1`, for which the IC50 in [1] was found to be 3000 nM; against Cytochrome P450 3A4, 11000 nM; in data set [23], 43 nM. The Papp A→B in [2] came out at 2.6 ×10⁻⁶ cm/s. The figures for the fraction unbound in data set [3] and in [9] were 0.07 and 0.1, respectively. For the same molecule, the Cmax in data set [4] was 1100 nM; in data set [16] it was 600 nM. Also, in data set [5], the concentration at 24 h was found to be 300 nM. Also, the half-life in data set [6] was greater than 1.5 h; in data set [14] it was 6.5 h; in [18], 12.2 h; in data set [20] it was 9.8 h. The inhibition stood at 16% in the data set filed under Homo sapiens [7] and 71% in the data set filed under Homo sapiens [8]. Also, the solubility in [10] worked out at 79 µg/mL (≈ 193 µM). Besides, the Tmax in [11] was 4 h; in data set [17], 7.3 h. Also, the AUC was 17.9 µM·h in data set [12], 4.9 µM·h in [13] and 5.8 µM·h in data set [19]. Moreover, the clearance in data set [15] came to 16.7 mL/min/kg. The Activity result in the data set on Rattus norvegicus [21] was “Toxic”; in the data set with Rattus norvegicus [22], “Toxic”; in [24] it was 100%; in data set [25] it was 100%; in data set [26] it was 88%; in [27], 98%. The Activity in data set [28] was 100%; in data set [29], 87%; in [30], 84%; in data set [31] it was 90%; in data set [32], 87%; in data set [33], 100%. In addition, the Activity was found to be 100% in [34] and 87% in [35].
As to `CC1(C)[C@H](Nc2c(C(N)=O)cnn3cc(-c4ccccc4)cc23)CC[C@]1(C)N`, the result in the data set on Mus musculus [36] and with Mus musculus [39] was Active. Also, the values for the concentration at 24 h in data set [37] and in [38] were 390 nM and 60 nM, respectively. In addition, the Activity result is “Toxic” with Mus musculus [40] and 95% in data set [41]. In data set [42], the fraction unbound is 0.52. Further, the half-inhibitory concentration (IC50) in the data set filed under Mus musculus [43] was found to be 270 nM.

Source of the values: ChEMBL document CHEMBL4052645, “Discovery of potent and efficacious pyrrolopyridazines as dual JAK1/3 inhibitors” (Bioorg Med Chem Lett, 2017).
